Results on twelve compounds are retold here after US5919797A, “Halogenated naphthyl methoxy piperidines for mapping serotonin transporter sites” (Emory University, priority 1997, dated 1999).

One may read the IC50 as the point on the concentration scale where inhibition reaches its midpoint. What is called Ki is the dissociation constant of the complex between target and ligand, obtained from inhibition or displacement.

Entries after “also recorded” stand apart in the source; their conditions may differ. Where a name gives a salt, the structure may show the parent alone. Read-outs that look alike come from different tables or passages of the source. Where only a bound is given, the exact number is not on record here.

Test [1] concerns the target T1, serotonin transporter (Rattus norvegicus, UniProt P31652).
T1 construct: from tissue; host or cells: rat cerebral cortex homogenate
Put plainly: inhibition of [3H]-citalopram binding to rat cortical homogenates (competitive radioligand binding assay). From the text:
Compounds of the invention have activity as specific ligands of the serotonin transporter. In particular, the 1-halonaphthalenyl pharmacophore has high affinity for the serotonin transporter. […] Halogen substituents can be in naturally-occurring or radioisotopic form.
Many compounds have been described in the literature as selective inhibitors of the presynaptic reuptake of serotonin (5-hydroxytryptamine,5-HT). […] A good correlation exists between the capacities of a variety of drugs to inhibit [^3 -H]-citalopram binding and [^3 -H]-5HT uptake in rat cortex, thus allowing this binding test to be used in screening for new 5-HT uptake inhibitors. […]

For a further test, the system named is serotonergic neurons. Put plainly: biodistribution studies in rats of radiolabelled compound. The note with it: 123-I labelled. The test is classed as in vivo, rat.
In test [2] the test system is presynaptic reuptake of serotonin. The settings on record: humans; depression, obsessive-compulsive and eating disorders, alcoholism, drug addiction; cited from earlier work.
Another test concerns 5HT3 receptor. Description: inhibition of [3H] GR65630 binding to serotonergic synaptosomal preparation. From the text: 5HT3 receptor activity. It blocked the binding of [3H] GR65630 to […]
The subject of test [3] is serotonin transporter. The note with it: radiolabeled with carbon-11 and fluorine-18; cited from earlier work.
The test system of test [4] is serotonin transporter sites. The settings on record: carbon-11 labelled, vs previously tested PET serotonin transporter ligands; cited from earlier work.
Setting [5] is: Table 1, rat cortical tissue, read-out: [3H]-Citalopram Binding IC50.
Where [6] appears, read: Table 1, rat cortical tissue, read-out: [3H]-Citalopram Binding Ki.
The mark [7] stands for this setting: concentration needed to achieve 50% inhibition of citalopram binding (IC50), rat cortical homogenates.
[8] abbreviates: serotonergic synaptosomal preparation.

T1 sequence (P31652 whole entry): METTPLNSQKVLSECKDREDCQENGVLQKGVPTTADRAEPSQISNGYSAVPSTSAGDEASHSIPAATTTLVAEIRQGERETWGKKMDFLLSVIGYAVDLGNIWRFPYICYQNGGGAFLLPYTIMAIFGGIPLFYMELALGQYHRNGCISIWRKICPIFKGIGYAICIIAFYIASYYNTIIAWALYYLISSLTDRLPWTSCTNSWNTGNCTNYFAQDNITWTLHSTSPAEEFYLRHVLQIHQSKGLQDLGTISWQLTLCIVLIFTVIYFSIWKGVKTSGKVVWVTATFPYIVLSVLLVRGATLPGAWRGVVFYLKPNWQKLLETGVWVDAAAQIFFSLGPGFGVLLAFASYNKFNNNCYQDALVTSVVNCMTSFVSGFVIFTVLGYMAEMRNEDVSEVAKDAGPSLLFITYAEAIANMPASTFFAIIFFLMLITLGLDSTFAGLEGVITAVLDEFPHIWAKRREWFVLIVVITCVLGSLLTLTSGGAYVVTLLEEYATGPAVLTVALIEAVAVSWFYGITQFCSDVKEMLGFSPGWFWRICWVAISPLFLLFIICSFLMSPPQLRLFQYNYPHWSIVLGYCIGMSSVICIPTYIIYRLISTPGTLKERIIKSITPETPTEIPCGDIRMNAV

Regarding `Cl.Clc1c(COC2CCNCC2)ccc2ccccc12` [Compound 4, 4-[(1-Chloro-2-naphthalenyl)methoxy]-piperidine hydrochloride], the 50% inhibitory concentration (IC50) at serotonin transporter [1] (setting [5]) was 2.12 nM; at serotonin transporter [1] (setting [7]), 1.24 nM. For the same compound, the Ki on serotonin transporter [1] (setting [6]) came out at 1.24 nM. In addition, the “inhibition of [3H]-citalopram binding / affinity for the serotonin transporter, in words” value at serotonin transporter [1] (rat cortical tissue) is “inhibitory activity comparable to that of fluoxetine and fluvoxamine”.

Turning to `[123I]c1c(COC2CCNCC2)ccc2ccccc12` [Compound 58], the “selective accumulation of radioactivity in serotonergic neurons” value with serotonergic neurons is “did not lead to selective accumulation of the radioactivity in serotonergic neurons”.

With `Brc1c(COC2CCNCC2)ccc2ccccc12.Cl` [Compound 1, 4-[(1-Bromo-2-naphthalenyl)methoxy]piperidine hydrochloride], the IC50 at serotonin transporter [1] (setting [5]) is 0.02 nM; at serotonin transporter [1] (setting [7]), 0.015 nM. Moreover, at serotonin transporter [1] (setting [6]), the Ki worked out at 0.014 nM. Moreover, the “inhibition of [3H]-citalopram binding / affinity for the serotonin transporter, in words” value on serotonin transporter [1] (rat cortical tissue) was “most potent inhibitor”. At serotonin transporter [1] (rat cortical tissue, vs fluoxetine (Prozac)), the “potency relative to fluoxetine, inhibition of [3H]-citalopram binding” value is on record as 100 fold.

With `Brc1c(COC2CCNCC2)ccc2cc(I)ccc12` [Compound 7, 4-[(1-Bromo-6-iodo-2-naphthalenyl)methoxy]piperidine hydrochloride], the IC50 on serotonin transporter [1] (setting [5]) turned out to be 60 nM. The Ki at serotonin transporter [1] (setting [6]) amounted to 58.4 nM.

On to `COCCCC/C(=N\OCCN)c1ccc(C(F)(F)F)cc1` [fluvoxamine], for which the “therapeutic value, in words” value in test [2] is listed as “considerable therapeutic value”.

`Brc1c(COC2CCNCC2)c(I)cc2ccccc12` [Compound 5, 4-[(1-Bromo-3-iodo-2-naphthalenyl)methoxy]piperidine hydrochloride]: the IC50 at serotonin transporter [1] (setting [5]) turned out to be 54.6 nM. Further, the Ki on serotonin transporter [1] (setting [6]) came out at 36.9 nM.

As for `Cl.Fc1c(COC2CCNCC2)ccc2ccccc12` [Compound 3, 4-[(1-Fluoro-2-naphthalenyl)methoxy]-piperidine hydrochloride], the IC50 amounted to 5.74 nM at serotonin transporter [1] (setting [5]) and 3.37 nM at serotonin transporter [1] (setting [7]). Also, on serotonin transporter [1] (setting [6]), the Ki turned out to be 3.37 nM. For the same compound, the “inhibition of [3H]-citalopram binding / affinity for the serotonin transporter, in words” value at serotonin transporter [1] (rat cortical tissue) is “inhibitory activity comparable to that of fluoxetine and fluvoxamine”.

Turning to `c1ccc2nc(COC3CCNCC3)ccc2c1` [Compound 70, 4-[(2-quinolenyl)methoxy]piperdine hydrochloride], the “5-HT3 antagonism, in words” value with 5HT3 receptor (hydrochloride) is listed as “high selectivity as an antagonist of 5-HT3 function; also recorded: potent inhibitor”. The concentration for half-maximal inhibition (IC50) is 7.4 nM at 5HT3 receptor (setting [8]) and above 100 nM at serotonin transporter [1] (setting [5]). Also, the Ki at 5HT3 receptor (setting [8]) was 3.24 nM; on serotonin transporter [1] (setting [6]) it was above 100 nM. At serotonin transporter [1] (rat cortical tissue), the “inhibition of [3H]-citalopram binding / affinity for the serotonin transporter, in words” value was “devoid of affinity for the serotonin transporter”.

Take `Ic1c(COC2CCNCC2)ccc2ccccc12` [Compound 2, 4[(1-Iodo-2-naphthalenyl)methoxyl]piperidine hydrochloride]: the affinity at serotonin transporter [1] corresponds to a Ki of 4.13 nM. Moreover, the IC50 was found to be 5.9 nM at serotonin transporter [1] ([3H]-Citalopram Binding IC50, Table 1, rat cortical tissue) and 4.1 nM on serotonin transporter [1] (setting [7]).

Take `O=[N+]([O-])c1ccc2nc(N3CCNCC3)ccc2c1` [nitroquipazine]: the “image quality / in vivo affinity and selectivity, in words” value with serotonin transporter [3] is recorded as “poor quality images”.

Consider `[11CH3]Sc1ccc([C@H]2CN3CCC[C@H]3c3ccccc32)cc1` [Carbon-11 McN-5652Z], for which, in test [4], the “accumulation in brain regions rich in serotonergic neurons, in words” value is “greatest accumulation in brain regions rich in serotonergic neurons”.

Turning to `Brc1c(COC2CCNCC2)cc(I)c2ccccc12` [Compound 6, 4-[(1-bromo-4-iodo-2-naphthalenyl)methoxy]piperidine hydrochloride], on serotonin transporter [1] (setting [5]), the IC50 amounted to 24.6 nM. In addition, the Ki on serotonin transporter [1] (setting [6]) was 16.7 nM.
